Results: ChEMBL document CHEMBL5505970 (J Med Chem, 2024)

How the values were obtained:
[1] = Toxicity in BALB/c mouse assessed as late stage erythroblasts in bone marrow at 10 mg/kg, po qd for 3 days and measured at 4 days after treatment discontinuation by flow cytometry; format: organism-based; conditions: in vivo, 72 h, time 3 day
[2] = Toxicity in BALB/c mouse assessed as reduction in bone marrow cell viability at 10 mg/kg, po qd for 3 days by trypan blue exclusion assay; format: organism-based; conditions: in vivo, 72 h, time 3 day
[3] = Oral bioavailability in Beagle dog at 5 mg/kg formulated as suspension in 0.5% methocel and 0.02% SLS in 50 mM citrate buffer measured for 24 hrs by reverse phase liquid chromatography coupled to mass spectrometry; format: ADME, organism-based, Canis lupus familiaris; conditions: in vivo
[4] = Clearance in mouse liver microsomes at 1 uM in presence of NADPH by ESI/LC-MS/MS analysis; format: ADME, Microsome; conditions: read-out: CLH
[5] = Toxicity in NOD-SCID mouse xenografted with human Granta-519 cells assessed as early stage erythroblasts in bone marrow at 10 mg/kg, po qd for 3 days co-administered with PARP inhibitor, niraparib and measured at 4 days after treatment cessation by flow cytometry; format: organism-based; conditions: in vivo, 72 h, time 3 day
LoVo = test: Cytotoxicity against human LoVo cells assessed as reduction in cell viability incubated for 5 days by CellTiter-Glo assay; format: functional, cell-based; conditions: 120 h

bioavailability [3]: 113%
microsomal CLint at 1 µM [4]: 25 µL/min/mg
SMILES: C[C@@H]1COCCN1c1cc([C@]2(O)C[C@H]3CC[C@@H](C2)O3)c2cnn(-c3cc[nH]n3)c2n1 [CAMONSERTIB]
Activity [1]: Non-Toxic
Activity [2]: Toxic
Activity [5]: Non-Toxic
IC50 (LoVo): 28 nM
